Data from a melting point compilation (Tetko et al.; mined from patent text by program, amines drawn as free bases though some values may be those of a salt).

| melting point | SMILES |
| --- | --- |
| 165 to 166 °C | C=CCN(CC=C)c1nc(NC(=O)C=C(C)C)n2oc(=O)nc2n1 |
| 138 °C | CCOC(=O)c1cnn(-c2nc(-c3cccc(C(F)(F)F)c3)cs2)c1C |
| 244 to 245 °C | COC(=O)c1cc(=O)c2oc3ccccc3c(=O)c2[nH]1 |
| 128 to 130 °C | COC1C(OC(=O)c2ccccc2)C(COC(=O)c2ccccc2)OC1n1cc(C)c(=O)[nH]c1=O (configuration not stated) |
| 292 to 293 °C | Cc1[nH]n(C2CCCCC2)c2nc(-c3ccncc3)nc(=O)c1-2 |
| 199 to 201 °C | Cc1c(NC(=O)c2ccc(-c3ccc(F)c(F)c3)cc2)ccc2cc(CN3CCCC3)cnc12 |
| 168 to 170 °C | CS(=O)(=O)c1cc(S(F)(F)(F)(F)F)ccc1C(=O)c1cnoc1C1CC1 |
| 151 to 155 °C | CCOC(=O)c1c(SC)nc(-c2ccc(SC)cc2)n(-c2ccc(F)cc2)c1=O |
| 117 to 120 °C | CCOC(=O)Cn1c2c(c3cc(Cl)cc(Cl)c31)CCN(C(=O)OC(C)(C)C)CC2 |
| 123 to 128 °C | CN1NC(C2CCCC2)=CC1C(=O)O (configuration not stated) |
| 136 to 138 °C | CCOC(=O)c1[nH]c(CC2CCC2)nc1C(F)(F)F |
| 70 °C | CCOC(=O)C(C)Oc1ccc(Oc2nc3ccc(Cl)cc3cc2Cl)cc1 (configuration not stated) |
| 143 to 144 °C | CC(C(=O)O)c1ccc(CCNC(=O)c2cccc3cccnc23)cc1 (configuration not stated) |
| 168 to 169 °C | CCCC(=O)Nc1c(C)c2c(c(Cc3ccc(C(C)C)cc3)c1C)OCC2 |
| 172 °C | CC(C)c1n[nH]c(=O)n1N |
| 227 to 228 °C | Cc1nc2c3c(c(C(=O)N(C)C)cc2n1C)CC[C@@H](c1ccccc1)O3 |
| 215 to 218 °C | CN(C)CCNC(=O)c1cn(C)c(=O)c2nc3ccccc3nc12 |
| 60.5 to 61.5 °C | COc1ccc(C=C(C(=O)C2CC2)C(=O)C2CC2)cc1 |
| 186 °C | CCOC(=O)c1cn(CC)c2nc(N3CCN(c4ccccc4)CC3)ncc2c1=O |

| melting point | SMILES |
| --- | --- |
| 106 to 107 °C | CCNc1nc(Nc2ccccc2)ncc1CCC(=O)OCC |
| 144 to 145 °C | COc1cc(C=C(C)C(=O)O)ccc1O |
| 164 to 166 °C | CCc1nc(OC)c(NC(=O)N2CCN(c3cc(C)cc(C)c3)CC2)cc1C(=O)NC(C)C(=O)Nc1cc(CO)cc(Nc2c3ccccc3nc3ccc(C)cc23)c1 (configuration not stated) |
| 126 to 128 °C | CCCCOCCOc1ccc(-c2ccc(N3CC(C)C(C)C3)c(C=C(C)C(=O)O)c2)cc1 (configuration not stated) |
| 142 to 144 °C | CCC(C)(Oc1ccc(OCc2cc(-c3ccc(O)cc3)no2)cc1)C(=O)O (configuration not stated) |
| 96 to 97 °C | C[C@@H](n1ncn(-c2ccncc2)c1=O)[C@@]1(c2ccc(F)cc2F)CO1 |
| 153 to 155 °C | CCCN(CCC)CC1CCCN(CCNC(=O)N2c3ccccc3NC(=O)c3c2ccn3C)C1 (configuration not stated) |
| 189 to 191 °C | COc1cc(C(=O)c2c(C)nn(C)c2O)cc(OC)c1OC |
| 162 to 163 °C | CC(C)(C)C(=O)OCOC(=O)[C@H]1C[C@H](NC(=O)Cc2ccccc2)c2c(Cl)cc(Cl)cc2N1 (relative stereo) |
| 152 to 153 °C | CCN(CC)C(=O)/C=C/C(C)Sc1nc(N)cc(Cl)n1 (configuration not stated) |
| 301 °C | CN1CCN(S(=O)(=O)c2cc(NC(=O)c3cnn4c(C(F)(F)F)cc(-c5ccc(C(F)(F)F)cc5)nc34)c(Cl)s2)CC1 |
| 136 to 137 °C | COC(=O)c1ccc(C2(c3ccc4c(c3)C3(C)C5(C)CCC(C5)C3(C)O4)OCCO2)cc1 (configuration not stated) |
| 133 to 134 °C | CCCCCCCCC1OC(=O)c2cc(NC(C)=O)ccc21 (configuration not stated) |
| 158 °C | CC[C@H](O)CC(=O)N[C@H]1CC[C@H](CCN2CCN(c3nccc4c3CCO4)CC2)CC1 |
| 175 to 177 °C | Cc1cccc(N2CCN(CCCCc3ccc(C(CCC(=O)O)=NO)cc3)CC2)c1 |
| 180 to 182 °C | Cc1nc(-n2ccccc2=O)sc1C(=O)NCc1ccccc1 |
| 232 to 233 °C | CN(C)C(=O)c1nc(-c2ccccc2)nc2[nH]c3cc(Cl)ccc3c12 |
| 188 to 189 °C | Cc1c(-c2ccc([N+](=O)[O-])cc2)sc2c1c(=O)c(OC(C)C)cn2Cc1c(F)cccc1F |
| 189 to 192 °C | CC(=O)NCC1CC1c1c(C#N)ccc2nn(C)cc12 (configuration not stated) |

More lines, now with the values behind:

| SMILES | melting point |
| --- | --- |
| S=C(NCCC1=CCCCC1)Nc1ccccn1 | 153 to 155 °C |
| O=C(NC(CO)CNS(=O)(=O)c1ccc(Oc2ccccc2)cc1)OCc1ccccc1 (configuration not stated) | 86 to 89 °C |
| O=C(Oc1ccc(OC(=O)c2cc(O)cc(O)c2)c2ccccc12)c1cc(O)cc(O)c1 | 201 to 203 °C |
| O=S1(=O)NC(C2CCCCC2)Nc2ccc(S(=O)(=O)c3ccccc3)cc21 (configuration not stated) | 243 to 245 °C |
| CC(CCC(=O)C(C)(C)O)C1CCC2C3CC(O)C4CC(O)CCC4(C)C3CCC12C (configuration not stated) | 189 to 191 °C |
| Cc1nnc(-c2ccc3occ(-c4ccc(S(=O)(=O)N(C)C)cc4)c3c2)o1 | 246 to 247 °C |
| Cc1oc(-c2ccccc2)nc1COc1ccc(CCc2nnn[nH]2)cc1 | 203 to 204 °C |
| Cc1cc(C(N)=O)ncc1C(c1c(F)ccc(F)c1F)S(=O)(=O)CC1CC(F)(F)C1 (configuration not stated) | 205 to 207 °C |
| CC(=O)N1C(C)(C)CC(OC(=O)C(Cc2cc(C(C)(C)C)c(O)c(C(C)(C)C)c2)(Cc2cc(C(C)(C)C)c(O)c(C(C)(C)C)c2)C(C)=O)CC1(C)C | 165 to 166 °C |
| CCCCCCCCCCCCc1cc(O)ccc1S | 75 to 76 °C |
| Cc1ccc(-c2ccc3c(c2)C=C(C(=O)Nc2ccc(CN4CCCCC4)cc2)C3)cc1 | 219 to 220 °C |
| COc1cc2c(N)nc(N3CCN(c4nc5ccccc5s4)CC3)nc2c(OC)c1OC | > 250 °C |
| c1ccc(C2C3=NCCN3CCc3ccccc32)cc1 (configuration not stated) | 122 to 123 °C |
| COc1ccc2c(c1)C1=C(SCC3(CCN(CC(O)COc4ccc(C(C)(C)C)cc4)CC3)O1)C(=O)C2=O (configuration not stated) | 153 to 156 °C |
| Cc1cc(I)ccc1Nc1c(C(=O)O)cc(F)c(F)c1F | 206 to 210 °C |
| CCOC(=O)CCCOc1ccc(N2CCN(c3ccncc3)CC2)cc1 | 84 to 85 °C |
| Cc1c(C)c(N2Cc3cc4c(cc3C2)OCO4)c(C)c2c1OC(C)(C)C2c1ccccc1 (configuration not stated) | 245 to 248 °C |
| O=CC(Nc1ccc2c(c1)OCC(=O)N2)N1CCC(Cc2ccccc2)CC1 (configuration not stated) | 172 to 175 °C |
| COc1cc2c(cc1O)/C(=N/OCc1ccc([N+](=O)[O-])cc1)CCC2 | 125 to 127 °C |
| Cc1c(C(=O)O)cccc1-n1cccc1 | 146 to 148 °C |
| Nc1cc(F)c(F)cc1C(=O)NOCc1ccccc1 | 125 to 126 °C |
| O=C(O)Cc1c(C(=O)c2ccncc2)[nH]c2cc(Cl)ccc12 | 256 to 257 °C |
| Cc1cc(C(=O)N2Cc3ccc(C(=O)N(C)C[C@H](O)[C@H]4OC(=O)O[C@@H]4[C@H](O)CO)n3Cc3ccccc32)ccc1C1=CCCCC1 | 166 to 175 °C |
| COc1cc2ncnc(NC3=CC(=O)C4(C(C)C)OC4C3=O)c2cc1OC (configuration not stated) | 188 to 190 °C |
| COc1ccc2c(c1)SC(CCBr)C(=O)N2 (configuration not stated) | 142 to 143 °C |
| O=[N+]([O-])c1ccc(CCN2CCN(c3cc(Cl)nnc3Cl)CC2)c([N+](=O)[O-])c1 | 145 to 146 °C |
| COc1ccc(COCc2nnc3n2-c2ccc(Cl)cc2C(c2ccccc2Cl)=NC3)cc1 | 235 to 237 °C |
| NCC(O)CN1CCC(C2(c3ccc(F)cc3)OCCO2)CC1 (configuration not stated) | 132 to 136 °C |
| O=C(c1ccccc1)c1ccc(NC(=O)C(O)(C(F)F)C(F)F)cc1 | 139 to 142 °C |
